According to ChEMBL document CHEMBL5033988, “Quinolizidine Alkaloids from Cylicomorpha solmsii” (2021):

How the values were obtained:
Assay type in all cases: functional
Conditions in all cases: HCT-116, 72 h, time 3 day
HCT-116 [1] = test: Antiproliferative activity against human HCT-116 cells assessed as cell growth inhibition at 0.4 uM after 3 days by ATPlite assay relative to control
HCT-116 [2] = test: Antiproliferative activity against human HCT-116 cells assessed as cell growth inhibition at 10 uM after 3 days by ATPlite assay relative to control
HCT-116 [3] = test: Antiproliferative activity against human HCT-116 cells assessed as cell growth inhibition at 20 uM after 3 days by ATPlite assay relative to control
HCT-116 [4] = test: Antiproliferative activity against human HCT-116 cells assessed as cell growth inhibition at 1 uM after 3 days by ATPlite assay relative to control

Row | SMILES | inhibition at 0.4 µM (HCT-116 [1]) [%] | inhibition at 10 µM (HCT-116 [2]) [%] | inhibition at 20 µM (HCT-116 [3]) [%] | inhibition at 1 µM (HCT-116 [4]) [%]
1 | COc1ccc(C(=O)O[C@@H]2CC[C@@H]3CCC[C@H](CC(=O)O)N3[C@H]2C)cc1OC | -3.6 | -6.4 | -13.1 | -5.5
2 | COc1ccc(C(=O)O[C@@H]2CC[C@@H]3CCC[C@H](CC(=O)O)N3[C@H]2C)c(OC)c1 | -6.1 | -4.7 | -3.2 | -8
3 | C[C@H]1[C@H](OC(=O)/C=C/c2ccccc2)CC[C@@H]2CCC[C@H](CC(=O)O)N21 | -3.6 | -4.2 | 0.7 | -7.8
4 | COc1ccc(/C=C/C(=O)O[C@@H]2CC[C@@H]3CCC[C@H](CC(=O)O)N3[C@H]2C)cc1 | -6.1 | 62.3 | 80.2 | 0.9
5 | C[C@H]1[C@H](OC(=O)c2ccccc2)CC[C@@H]2CCC[C@H](CC(=O)O)N21 | -12.8 | -10.2 | -6.2 | -4.3
6 | COc1cccc2c1C(=O)c1c(O)c3c(c(O)c1C2=O)C[C@@](O)(C(=O)CO)C[C@@H]3O[C@H]1C[C@H](N)[C@H](O)[C@H](C)O1 [DOXORUBICIN] | 84.5 | 91.1 | 91.7 | 96.3
